From patent US8791132B2, “Compounds and methods for treatment of hypertension” (Medivation Technologies, Inc., priority 2011, dated 2014)
Where two headings read alike, the source gives them in different places.

Legend:
[1] = target: T1, rat adrenergic α1B receptor (Rattus norvegicus, UniProt P15823); test: Radioligand binding, adrenergic α1B ([3H]Prazosin)
T1 construct: rat adrenergic α1B receptor obtained from Wistar Rat liver; from tissue; host or cells: Wistar rat liver
T1 sequence (P15823 1-515): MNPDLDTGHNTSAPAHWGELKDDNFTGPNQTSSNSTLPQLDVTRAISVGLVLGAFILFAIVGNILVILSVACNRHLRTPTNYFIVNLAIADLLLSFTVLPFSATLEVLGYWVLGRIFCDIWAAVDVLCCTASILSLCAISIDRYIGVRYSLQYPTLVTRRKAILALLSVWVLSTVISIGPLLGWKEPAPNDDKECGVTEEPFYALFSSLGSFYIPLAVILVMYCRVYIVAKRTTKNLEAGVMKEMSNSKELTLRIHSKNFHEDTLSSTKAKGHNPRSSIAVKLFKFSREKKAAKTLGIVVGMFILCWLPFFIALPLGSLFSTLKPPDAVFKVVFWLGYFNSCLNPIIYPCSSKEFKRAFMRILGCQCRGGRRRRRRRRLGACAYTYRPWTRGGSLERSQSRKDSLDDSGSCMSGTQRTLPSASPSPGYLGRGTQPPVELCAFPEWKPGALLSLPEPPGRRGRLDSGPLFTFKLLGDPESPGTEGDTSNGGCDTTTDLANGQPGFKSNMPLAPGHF
Protocol: To evaluate in radioligand binding assays the activity of compounds of the invention, rat adrenergic α1B receptor obtained from Wistar Rat liver (Garcia-S'ainz, J. et al, Biochem. Biophys. Res. Commun. 186:760, 1992; Michel, A. et al, Br. J. Pharmacol. 98:883, 1989) in a modified Tris-HCl buffer (50 mM Tris-HCl buffer, pH 7.4, 0.5 mM EDTA) was used. Compounds of the invention were incubated with 0.25 nM [^3H]Prazosin for 60 min at 25° C. Non-specific binding was estimated in the presence of 10 μM phentolamine. Receptor proteins were filtered and washed, the filters were then counted to determine [^3H]Prazosin specifically bound. […] Compounds of the invention were tested in this biochemical assay and percent inhibition of specific binding was determined. Biochemical assay results are presented as the percent inhibition of specific binding in Table B1.

[2] = target: T2, human recombinant adrenergic α2B receptor (Homo sapiens, UniProt P18089); test: Radioligand binding, adrenergic α2B ([3H]Rauwolscine); conditions: for Percentage inhibition of ligand binding, Adrenergic α2B / Percentage inhibition of ligand binding, Adrenergic α2B (0.03 μM) / inhibition at 0.03 µM: [3H]Rauwolscine; for Percentage inhibition of ligand binding, Adrenergic α2B / Percentage inhibition of ligand binding, Adrenergic α2B (0.03 μM): 0.03 µM
T2 construct: expressed in transfected cells; host or cells: CHO-K1
T2 sequence (P18089 1-450): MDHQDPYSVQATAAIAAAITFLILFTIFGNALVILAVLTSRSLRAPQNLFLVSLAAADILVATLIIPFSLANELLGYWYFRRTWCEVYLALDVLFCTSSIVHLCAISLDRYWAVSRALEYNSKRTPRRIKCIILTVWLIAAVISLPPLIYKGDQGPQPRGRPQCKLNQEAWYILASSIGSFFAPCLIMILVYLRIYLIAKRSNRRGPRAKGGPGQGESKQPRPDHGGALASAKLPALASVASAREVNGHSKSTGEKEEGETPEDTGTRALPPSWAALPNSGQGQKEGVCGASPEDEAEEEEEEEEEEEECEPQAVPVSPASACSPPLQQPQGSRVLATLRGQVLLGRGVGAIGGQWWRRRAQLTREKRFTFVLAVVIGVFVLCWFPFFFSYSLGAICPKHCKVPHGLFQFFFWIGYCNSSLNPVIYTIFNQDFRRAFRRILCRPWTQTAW
Protocol: To evaluate in radioligand binding assays the activity of compounds of the invention, human recombinant adrenergic α2B receptor expressed in Chinese hamster ovary (CHO) K1 cells (Uhlen, S. et al, Eur. J. Pharmacol. 343(1):93, 1998) in a modified Tris-HCl buffer (50 mM Tris-HCl, pH 7.4, 12.5 mM MgCl2, 1 mM EDTA, 0.2% BSA) was used. Compounds of the invention were incubated with 2.5 nM [3H]Rauwolscine for 60 min at 25° C. Non-specific binding was estimated in the presence of 10 μM Prazosin. Receptor proteins were filtered and washed, the filters were then counted to determine [3H]Rauwolscine specifically bound. […] Compounds of the invention were tested in this biochemical assay and percent inhibition of specific binding was determined. Biochemical assay results are presented as the percent inhibition of specific binding in Table B1.

[3] = target: T3, human recombinant adrenergic α2A receptor (Homo sapiens, UniProt P08913); test: Radioligand binding, adrenergic α2A ([3H]MK-912)
T3 construct: expressed in transfected cells; host or cells: insect Sf9 cells
T3 sequence (P08913 1-465): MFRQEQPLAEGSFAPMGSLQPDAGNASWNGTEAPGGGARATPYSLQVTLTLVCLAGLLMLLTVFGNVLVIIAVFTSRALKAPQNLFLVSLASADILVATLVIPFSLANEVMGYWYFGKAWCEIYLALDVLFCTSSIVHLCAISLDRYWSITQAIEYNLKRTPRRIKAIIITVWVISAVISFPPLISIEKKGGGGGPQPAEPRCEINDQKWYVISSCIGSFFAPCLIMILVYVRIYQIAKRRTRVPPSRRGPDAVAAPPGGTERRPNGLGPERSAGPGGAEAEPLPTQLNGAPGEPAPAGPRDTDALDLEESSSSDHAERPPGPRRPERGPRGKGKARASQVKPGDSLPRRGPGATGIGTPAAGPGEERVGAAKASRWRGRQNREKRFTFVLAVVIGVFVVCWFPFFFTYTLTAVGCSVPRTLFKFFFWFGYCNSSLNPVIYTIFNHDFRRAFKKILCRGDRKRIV
Protocol: To evaluate in radioligand binding assays the activity of compounds of the invention, human recombinant adrenergic α2A receptor expressed in insect Sf9 cells (Uhlen, S. et al, J. Pharmacol. Exp. Ther. 271:1558, 1994) in a modified Tris-HCl buffer (50 mM Tris-HCl, pH 7.4, 12.5 mM MgCl2, 2 mM EDTA) was used. Compounds of invention were incubated with 1 nM [^3H]MK-912 for 60 min at 25° C. MK912 is (2S-trans)-1,3,4,5′,6,6′,7,12b-octahydro-1′,3′-dimethyl-spiro[2H-benzofuro[2,3-a]quinolizine-2,4′(1′H)-pyrimidin]-2′(3′H)-one hydrochloride. Non-specific binding was estimated in the presence of 10 μM WB-4101 (2-(2,6-Dimethoxyphenoxyethyl)aminomethyl-1,4-benzodioxane hydrochloride). Receptor proteins were filtered and washed, the filters were then counted to determine [^3H]MK-912 specifically bound. […] Compounds of the invention were tested in this biochemical assay and percent inhibition of specific binding was determined. Biochemical assay results are presented as the percent inhibition of specific binding in Table B1.

[4] = compound at 0.1 μM, [3H]Prazosin, repeat datapoints each shown, 0.1 µM
[5] = compound at 0.03 μM, repeat assays, each datapoint shown
[6] = compound at 0.1 μM, [3H]Prazosin, repeat assays, each datapoint shown, 0.1 µM
[7] = compound at 0.1 μM, [3H]MK-912, repeat assays, each datapoint shown, 0.1 µM
[8] = compound at 0.03 μM, repeat datapoints each shown
[9] = read-out: Percentage inhibition of ligand binding, Adrenergic α1B (0.1 μM), compound at 0.1 μM, [3H]Prazosin, repeat datapoints each shown
[10] = read-out: Percentage inhibition of ligand binding, Adrenergic α2B (0.03 μM), compound at 0.03 μM, repeat datapoints each shown
[11] = 0.1 μM compound, read-out: Percentage inhibition of ligand binding, Adrenergic α1B
[12] = compound at 0.1 μM, [3H]MK-912, repeat datapoints each shown, 0.1 µM
[13] = read-out: Percentage inhibition of ligand binding, Adrenergic α2A (0.1 μM), compound at 0.1 μM, [3H]MK-912, repeat datapoints each shown
[14] = compound at 0.1 μM, [3H]Prazosin, repeat assays, each datapoint shown, read-out: Percentage inhibition of ligand binding, Adrenergic α1B

Cc1ccc2c(c1)c1c(n2CC(N=[N+]=[N-])c2ccncc2)CCN(C)C1 (racemic) [V-1a, 5-(2-azido-2-(pyridin-4-yl)ethyl)-2,3,4,5-tetrahydro-2,8-dimethyl-1H-pyrido[4,3-b]indole]
Percentage inhibition of ligand binding, Adrenergic α1B (0.1 μM) [1, 4]: 20%

Cc1ccc2c(c1)c1c(n2CC(OC(=O)C(N)C(C)C)c2ccncc2)CCN(C)C1 (single isomer, unassigned) [25a]
Percentage inhibition of ligand binding, Adrenergic α2B [2, 5]: 54% | Percentage inhibition of ligand binding, Adrenergic α1B [1, 6]: 4%

Cc1ccc2c(c1)c1c(n2CC(OC(=O)C(N)C(C)C)c2ccncc2)CCN(C)C1 (single isomer, unassigned) [25b]
Percentage inhibition of ligand binding, Adrenergic α2B [2, 5]: 75% | Percentage inhibition of ligand binding, Adrenergic α1B [1, 6]: 12%

Cc1ccc2c(c1)c1c(n2CC(O)c2ccc(C(=O)N(C)C)cc2)CCN(C)C1 (single isomer, unassigned) [52a]
Percentage inhibition of ligand binding, Adrenergic α2A [3, 7]: 5% | Percentage inhibition of ligand binding, Adrenergic α1B [1, 6]: 9%

Cc1ccc2c(c1)c1c(n2CC(O)c2ccc(C(=O)N(C)C)cc2)CCN(C)C1 (single isomer, unassigned) [52b]
Percentage inhibition of ligand binding, Adrenergic α2A [3, 7]: 29% | Percentage inhibition of ligand binding, Adrenergic α1B [1, 6]: 73%

Cc1ccc(CCn2c3c(c4cc(Cl)cnc42)C2CCCN2CC3)cn1 (single isomer, unassigned) [137a]
Percentage inhibition of ligand binding, Adrenergic α2B (0.03 μM) [2, 8]: 104% | Percentage inhibition of ligand binding, Adrenergic α1B (0.1 μM) [1, 4]: 94%

Cc1ccc2c(c1)c1c(n2CC(O)c2ccc(C#N)cc2)CCN(C)C1 (single isomer, unassigned) [142a]
Percentage inhibition of ligand binding, Adrenergic α2B (0.03 μM) [2, 8]: 71% | inhibition at 0.1 µM [1, 9]: 68%

CN1CCc2c(c3cc(Cl)ccc3n2CC(C)(O)c2ccc(C(F)(F)F)nc2)C1 (single isomer, unassigned) [143a]
Percentage inhibition of ligand binding, Adrenergic α1B (0.1 μM) [1, 4]: 43%

Cc1ccc2c(c1)c1c(n2CC(c2ccncc2)N2CCCC2)CCN(C)C1 (single isomer, unassigned) [152b]
Percentage inhibition of ligand binding, Adrenergic α1B (0.1 μM) [1, 4]: 7%

Cc1cnc2c(c1)c1c(n2CC(N)c2ccc(C#N)cc2)CCN(C)C1 (single isomer, unassigned) [159a]
inhibition at 0.03 µM [2, 10]: 37% | Percentage inhibition of ligand binding, Adrenergic α1B (0.1 μM) [1, 4]: −2%

CN1CCc2c(n(CC(O)c3ccc(F)c(F)c3)c3ccc(Cl)cc23)CC1 (single isomer, unassigned) [339a]
Percentage inhibition of ligand binding, Adrenergic α2A ([3]; 0.1 μM compound, 0.1 µM): 37% | inhibition at 0.1 µM [1, 11]: 13%

Cc1ccc2c(c1)c1c(n2CC(O)c2cn[nH]c2)CCN(C)C1 (single isomer, unassigned) [II-106a]
inhibition at 0.1 µM [1, 9]: 25%

Cc1ccc2c(c1)c1c(n2CC(O)c2cn[nH]c2)CCN(C)C1 (single isomer, unassigned) [II-106b]
Percentage inhibition of ligand binding, Adrenergic α2A (0.1 μM) [3, 12]: 8% | Percentage inhibition of ligand binding, Adrenergic α1B (0.1 μM) [1, 4]: 31%

Cc1ccc2c(c1)c1c(n2CC(C)(O)c2cccnc2)CCN(C)C1C (single isomer, unassigned) [II-152d]
Percentage inhibition of ligand binding, Adrenergic α2A (0.1 μM) [3, 12]: 8% | Percentage inhibition of ligand binding, Adrenergic α1B (0.1 μM) [1, 4]: 5%

Cc1ccc2c(c1)c1c(n2CC(O)c2ccc(F)cc2)CCN(C)C1 (stereo not shown) [30a]
Percentage inhibition of ligand binding, Adrenergic α1B [1, 6]: 57%

Cc1ccc2c(c1)c1c(n2CC(O)c2ccncc2)CCN2CCCC12 (stereo not shown) [129a]
inhibition at 0.1 µM [3, 13]: 46% | inhibition at 0.1 µM [1, 9]: 73%

Cc1ccc2c(c1)c1c(n2CC(O)c2ccncc2)CCN2CCCC12 (stereo not shown) [129b]
Percentage inhibition of ligand binding, Adrenergic α1B (0.1 μM) [1, 4]: 69%

Cc1ccc2c(c1)c1c(n2CC(c2ccncc2)N(C)C)CCN(C)C1 (stereo not shown) [150b]
inhibition at 0.1 µM [3, 13]: 5% | inhibition at 0.1 µM [1, 9]: 7%

Cc1ccc2c(c1)c1c(n2CC(C)(O)c2ccc(C)nc2)CN(C)CC1 (stereo not shown) [196b]
inhibition at 0.03 µM [2, 10]: -2% | inhibition at 0.1 µM [1, 9]: 37%

Cc1ccc2c(c1)c1c(n2C(C)C(O)c2ccncc2)CCN(C)C1 (stereo not shown) [II-98a]
inhibition at 0.1 µM ([3]; 0.1 μM compound, read-out: Percentage inhibition of ligand binding, Adrenergic α2A): 12% | Percentage inhibition of ligand binding, Adrenergic α1B ([1]; 0.1 μM compound): 33%

Cc1ccc2c(c1)c1c(n2CC(C)(O)c2cccnc2)CC[N+](C)([O-])C1 (stereo not shown) [II-105, 1-(2,8-dimethyl-2-oxy-1,2,3,4-tetrahydro-pyrido[4,3-b]indol-5-yl)-2-pyridin-3-yl-propan-2-ol]
inhibition at 0.1 µM ([2]; 0.1 μM compound, read-out: Percentage inhibition of ligand binding, Adrenergic α2B): 27% | Ki ([2]; read-out: Ki α2B): 152 nM | inhibition at 0.1 µM [1, 11]: 5%

Cc1ccc2c(c1)c1c(n2CC(C)(O)c2ccncc2)CCN(C)CC1 (stereo not shown) [II-134b]
Percentage inhibition of ligand binding, Adrenergic α2A (0.1 μM) ([3]; compound at 0.1 μM, [3H]MK-912, repeat datapoints each shown): 6% | Percentage inhibition of ligand binding, Adrenergic α1B (0.1 μM) ([1]; compound at 0.1 μM, [3H]Prazosin, repeat datapoints each shown): 65%

CN1CCc2c(c3cc(Cl)ccc3n2CC(O)c2cccnc2)C1 (stereo not shown) [compound 7]
inhibition at 0.03 µM ([2]; compound at 0.03 μM, repeat assays, each datapoint shown, read-out: Percentage inhibition of ligand binding, Adrenergic α2B): 59% | inhibition at 0.1 µM [1, 14]: 35%

Cc1ccc2c(c1)c1c(n2CC(O)c2ccncc2)C(C)N2CCC1C2 (stereo not shown) [compound 38]
inhibition at 0.1 µM [1, 14]: 20%

CN1CCc2c(n(CC(O)c3ccncc3)c3ccc(Cl)cc23)C1 (stereo not shown) [compound 41]
inhibition at 0.1 µM [1, 14]: 57%
